The target in one data set is human mGluR5 (Homo sapiens, UniProt P41594). Put plainly: Cell-based functional Ca2+ mobilization assay, potentiation of glutamate EC20 response (H10H cell-line). Conditions: H10H cell-line expressing recombinant human mGluR5; for Emax: in presence of glutamate EC20, normalized to maximal glutamate response; for EC50: potentiation in presence of glutamate EC20. Summed up: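 H10H HEK293A cells expressing human mGluR5a were loaded with 2 μM fluo-4 AM in HBSS/20 mM HEPES/2.5 mM probenecid pH 7.4 and read on an FDSS 6000. Compound was added after a ~3 s baseline, followed 2.3 min later by an EC20 glutamate concentration; potentiation EC50 came from non-linear curve fitting.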
Sequence of human mGluR5 (P41594 21-1180 isoform P41594-2 limits assumed): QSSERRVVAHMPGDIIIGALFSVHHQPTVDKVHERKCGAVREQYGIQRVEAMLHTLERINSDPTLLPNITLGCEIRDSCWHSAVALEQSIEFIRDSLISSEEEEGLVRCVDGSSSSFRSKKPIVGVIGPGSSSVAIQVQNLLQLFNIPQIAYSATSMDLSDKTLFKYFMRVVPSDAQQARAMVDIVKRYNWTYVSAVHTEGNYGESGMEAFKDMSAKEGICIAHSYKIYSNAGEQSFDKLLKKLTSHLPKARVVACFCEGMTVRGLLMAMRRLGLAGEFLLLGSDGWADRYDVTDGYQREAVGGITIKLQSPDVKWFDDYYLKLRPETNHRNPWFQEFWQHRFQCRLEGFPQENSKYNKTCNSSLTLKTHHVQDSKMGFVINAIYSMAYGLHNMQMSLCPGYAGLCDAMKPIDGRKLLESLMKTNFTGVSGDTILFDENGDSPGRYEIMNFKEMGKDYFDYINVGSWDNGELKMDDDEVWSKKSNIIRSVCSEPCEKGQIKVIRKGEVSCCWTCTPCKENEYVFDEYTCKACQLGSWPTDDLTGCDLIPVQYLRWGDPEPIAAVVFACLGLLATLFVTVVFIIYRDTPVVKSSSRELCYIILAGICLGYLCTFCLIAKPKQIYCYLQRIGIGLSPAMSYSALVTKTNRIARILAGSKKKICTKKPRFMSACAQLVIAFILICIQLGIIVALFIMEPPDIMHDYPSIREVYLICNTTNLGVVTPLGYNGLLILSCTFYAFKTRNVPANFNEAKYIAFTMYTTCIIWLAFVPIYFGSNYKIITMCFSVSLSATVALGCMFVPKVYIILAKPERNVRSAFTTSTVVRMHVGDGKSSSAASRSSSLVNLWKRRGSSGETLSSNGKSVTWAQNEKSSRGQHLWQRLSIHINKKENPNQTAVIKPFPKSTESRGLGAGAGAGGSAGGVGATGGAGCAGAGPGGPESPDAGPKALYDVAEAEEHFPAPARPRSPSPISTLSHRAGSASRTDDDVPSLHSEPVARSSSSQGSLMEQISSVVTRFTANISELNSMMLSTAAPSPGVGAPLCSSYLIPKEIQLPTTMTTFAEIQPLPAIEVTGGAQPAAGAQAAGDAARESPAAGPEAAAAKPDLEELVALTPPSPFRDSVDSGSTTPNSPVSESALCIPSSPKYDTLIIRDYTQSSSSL

For data set [1], the system named is amphetamine-induced hyperlocomotion. Description: Reversal of amphetamine-induced hyperlocomotion. Conditions: male Sprague-Dawley rats; test compound po in 20% HP-β-CD; amphetamine sulfate 1 mg/kg sc. It is filed as in vivo, rat. As for the experimental part: Locomotor activity was assessed as mean distance traveled (cm) in standard 16×16 photocell testing chambers measuring 43.2 cm (Length)×43.2 cm (Width)×30.5 cm (Height) (Med Associates, St. Albans, Vt.). Animals were habituated to individual activity chambers for at least 30 min prior to drug administration. Following administration of drug or vehicle, activity was recorded for a 90 minute time period. Data was expressed as the mean (±SEM) distance traveled recorded in 5 min intervals over the test period. The data was analyzed using repeated measures analysis of variance (ANOVA) followed by post-hoc testing using Dunnett's test, when appropriate. A difference was considered significant when p≦0.05. […]
The animals were habituated in Smart Open Field locomotor activity test chambers (Hamilton-Kinder, San Diego, Calif.) with 16×16 photobeams to automatically record locomotor activity for 30 min and then dosed with vehicle or test compound. […] At 60 min, all rats were injected subcutaneously with 1 mg/kg amphetamine or vehicle and then monitored for an additional 60 min. Animals are monitored for a total of 120 minutes. Data are expressed as changes in ambulation defined as total number of beam breaks per 5 min periods.
The data for the dose-response studies were analyzed by a between-group analysis of variance. […]

For orientation: Emax means the size of the effect at its maximum, as opposed to the concentration needed. Broadly, the EC50 is the concentration at which the effect is half-maximal. In general, melting point refers to the temperature of the solid-liquid transition.

Consider `O=C(c1ccc(F)cc1)N1CCc2nc(COc3ccccc3)oc2C1` [Example B1, 5-[(4-fluorophenyl)carbonyl]-2-(phenoxymethyl)-4,5,6,7-tetrahydro[1,3]oxazolo[5,4-c]pyridine], for which, at human mGluR5, the Emax turned out to be 84% and the EC50 is 380 nM. For the same molecule, the “reversal of amphetamine-induced hyperlocomotion” value in data set [1] was “Dose-dependent results for reversal of amphetamine-induced hyperlocomotion”.

Molecule `O=C(c1cncc(F)c1)N1CCc2nc(COc3ccccc3)oc2C1` [Example B65] had a melting point of 98.3 °C. At human mGluR5, the Emax is 49% and the EC50 is 3720 nM.

With `O=C(c1cncc(F)c1)N1CCc2nc(COc3cccc(F)c3)oc2C1` [Example B67], the melting point was over 300 °C. At human mGluR5, the Emax amounted to 49% and the EC50 is 3020 nM.

Molecule `Cc1ccc(OCc2nc3c(o2)CN(C(=O)c2ccc(F)cc2)CC3)cc1` [Example B70] showed a melting point of 137.2 °C. Besides, on human mGluR5, the maximal response (Emax) was determined as 56% and the EC50 is over 10000 nM.

On to `Cc1oncc1C(=O)N1CCc2nc(COc3ccccc3)oc2C1` [Example B71], for which the melting point was found to be 158.2 °C. Also, at human mGluR5, the Emax amounted to 21% and the EC50 is 331 nM.

Turning to `O=C(c1ccc(OC(F)(F)F)cc1)N1CCc2nc(COc3ccccc3)oc2C1` [Example B75], the melting point was over 300 °C. Moreover, at human mGluR5, the Emax is 70% and the EC50 is 933 nM.

`O=C(c1ccc2c(c1)OCO2)N1CCc2nc(COc3ccccc3)oc2C1` [Example B76] showed a melting point of 121.3 °C. Also, at human mGluR5, the Emax turned out to be 75% and the EC50 is 708 nM.

On to `O=C(c1ccc(F)cc1F)N1CCc2nc(COc3cccc(F)c3)oc2C1` [Example B78], for which the melting point is 90.1 °C. In addition, at human mGluR5, the Emax stood at 71% and the EC50 was 331 nM.

In turn, `O=C(c1ccc2ccccc2n1)N1CCc2nc(COc3ccccc3)oc2C1` [Example B79] had a melting point of 107.6 °C. Moreover, at human mGluR5, the maximal response (Emax) was 59% and the EC50 is 1820 nM.

`CN(C)c1cccc(C(=O)N2CCc3nc(COc4ccccc4)oc3C2)c1` [Example B83] showed a melting point of 102.9 °C. Further, at human mGluR5, the Emax amounted to 67% and the EC50 is 501 nM.

`Cn1cccc1C(=O)N1CCc2nc(COc3ccccc3)oc2C1` [Example B84] came in with a melting point of 78.5 °C. On human mGluR5, the Emax is 53% and the EC50 was 257 nM.

The molecule `N#Cc1cccc(C(=O)N2CCc3nc(COc4cccc(F)c4)oc3C2)c1` [Example B85] gave a melting point of over 300 °C. Moreover, on human mGluR5, the Emax stood at 57% and the EC50 was 219 nM.

As to `Cc1nc(C(=O)N2CCc3nc(COc4ccccc4)oc3C2)c(C)o1` [Example B86], the melting point was determined as 104.4 °C. Moreover, at human mGluR5, the Emax was determined as 53% and the EC50 is over 10000 nM.

Consider `O=C(c1ccno1)N1CCc2nc(COc3ccccc3)oc2C1` [Example B88], for which the melting point was 92.5 °C. On human mGluR5, the Emax worked out at 53% and the EC50 is 1780 nM.

`N#Cc1ccc(C(=O)N2CCc3nc(COc4cccc(F)c4)oc3C2)cc1F` [Example B89] displayed a melting point of 102.9 °C. Further, at human mGluR5, the Emax came out at 61% and the EC50 was 2190 nM.

Consider `O=C(c1ccc(F)nc1)N1CCc2nc(COc3ccccc3)oc2C1` [Example B94], for which the melting point came out at 128.7 °C. Besides, on human mGluR5, the Emax is 68% and the EC50 was 1120 nM.

For the molecule `O=C(c1cnn2ccccc12)N1CCc2nc(COc3ccccc3)oc2C1` [Example B95], the melting point amounted to 130.8 °C. In addition, on human mGluR5, the Emax came out at 64% and the EC50 is over 10000 nM.

In turn, `N#Cc1cc(C(=O)N2CCc3nc(COc4cccc(F)c4)oc3C2)ccc1F` [Example B97] displayed a melting point of 147.7 °C. Moreover, on human mGluR5, the Emax stood at 81% and the EC50 was 1050 nM.

In the case of `N#Cc1cc(C(=O)N2CCc3nc(COc4ccccc4)oc3C2)ccc1F` [Example B98], the melting point worked out at 128.2 °C. Further, on human mGluR5, the Emax turned out to be 73% and the EC50 was 741 nM.

As for `O=C(c1cccc2c1OCCO2)N1CCc2nc(COc3ccccc3)oc2C1` [Example B99], the melting point was determined as 55.5 °C. Also, at human mGluR5, the Emax is 57% and the EC50 was 776 nM.

With `O=C(c1ncc(F)cc1F)N1CCc2nc(COc3cccc(F)c3)oc2C1` [Example B101], the melting point is 109.8 °C. For the same molecule, on human mGluR5, the Emax was 67% and the EC50 is 3310 nM.

Take `O=C(c1ccc(F)cc1)N1CCc2nc(COc3cccc(C(F)(F)F)c3)oc2C1` [Example B127]: the melting point is 78.9 °C. In addition, at human mGluR5, the Emax came out at 40% and the EC50 is over 10000 nM.

`O=C(c1ccnnc1)N1CCc2nc(COc3ccccc3)oc2C1` [Example B150] gave a melting point of over 300 °C. Besides, on human mGluR5, the Emax was determined as 44% and the EC50 is over 10000 nM.

For the molecule `O=C(c1ccc2[nH]cnc2c1)N1CCc2nc(COc3ccccc3)oc2C1` [Example B156], the melting point worked out at 198.1 °C. Besides, at human mGluR5, the Emax was 14% and the EC50 was over 30200 nM.
